Source: ChEMBL document CHEMBL5352474, “Synthesis and in vitro antileishmanial activity of alkylene-linked nitrofurantoin-triazole hybrids” (Eur J Med Chem, 2023)

What was measured:
Leishmania donovani [1] = test: Antileishmanial activity against Leishmania donovani 9515 promastigotes assessed as inhibition of parasite growth incubated for 48 hrs by resazurin dye based assay; type: functional, organism-based; conditions: Leishmania donovani, 9515, 48 h
Leishmania major [2] = test: Antileishmanial activity against Leishmania major IR-173 promastigotes assessed as inhibition of parasite growth incubated for 48 hrs by resazurin dye based assay; type: functional, organism-based; conditions: IR-173, 48 h
Leishmania donovani [3] = test: Leishmanicidal activity against Leishmania donovani 9515 amastigote infected in human THP-1 cells incubated for 72 hrs by resazurin dye based analysis; type: functional, organism-based; conditions: Leishmania donovani, 9515, THP-1, 72 h
Leishmania major [4] = test: Leishmanicidal activity against Leishmania major IR-173 amastigote infected in human THP-1 cells incubated for 72 hrs by resazurin dye based analysis; type: functional, organism-based; conditions: IR-173, THP-1, 72 h
Leishmania major [5] = test: Antileishmanial activity against Leishmania major IR-173 amastigote infected in human THP-1 cells assessed as static activity by measuring inhibition of parasite growth incubated for 72 hrs by resazurin dye based assay; type: functional, organism-based; conditions: IR-173, THP-1, 72 h
[6] = Selectivity index, ratio of IC50 for cytotoxicity against HEK293 cells to IC50 for antileishmanial activity against Leishmania major IR-173 promastigotes; type: toxicity, cell-based; conditions: human, read-out: Ratio IC50
Leishmania donovani [7] = test: Antileishmanial activity against Leishmania donovani 9515 amastigote infected in human THP-1 cells assessed as static activity by measuring inhibition of parasite growth incubated for 72 hrs by resazurin dye based assay; type: functional, organism-based; conditions: Leishmania donovani, 9515, THP-1, 72 h
[8] = Cytotoxicity against HEK293 cells assessed as inhibition of cell growth incubated for 48 hrs by resazurin dye based assay; type: toxicity; conditions: human
[9] = Selectivity index, ratio of IC50 for cytotoxicity against HEK293 cells to IC50 for antileishmanial activity against Leishmania donovani 9515 promastigotes; type: toxicity, cell-based; conditions: human, read-out: Ratio IC50

Row | SMILES | IC50 (Leishmania donovani [1]) | IC50 (Leishmania major [2]) | IC50 (Leishmania donovani [3]) | IC50 (Leishmania major [4]) | IC50 (Leishmania major [5]) | selectivity ratio [6] | IC50 (Leishmania donovani [7]) | IC50 at 48 h [8] | selectivity ratio [9]
1 | O=C1CN(/N=C/c2ccc([N+](=O)[O-])o2)C(=O)N1CCCCCCn1cc(-c2ccc(F)cc2)nn1 | > 10 µM | 0.22 µM | > 10 µM | > 10 µM | > 10 µM | 40 | > 10 µM | 8.97 µM | –
2 | CCCCCc1ccc(-c2cn(CCCCCCN3C(=O)CN(/N=C/c4ccc([N+](=O)[O-])o4)C3=O)nn2)cc1 | 0.05 µM | 2.19 µM | > 10 µM | > 10 µM | > 10 µM | – | > 10 µM | – | –
3 | COc1ccc(-c2cn(CCCCCN3C(=O)CN(/N=C/c4ccc([N+](=O)[O-])o4)C3=O)nn2)cc1 | > 10 µM | 0.5 µM | > 10 µM | > 10 µM | > 10 µM | 45 | > 10 µM | 22.7 µM | –
4 | O=C1CN(/N=C/c2ccc([N+](=O)[O-])o2)C(=O)N1CCCCCCn1cc(CSc2ccccc2)nn1 | 0.06 µM | 2.75 µM | > 10 µM | > 10 µM | > 10 µM | 7 | > 10 µM | 19.6 µM | 327
5 | O=C1CN(/N=C/c2ccc([N+](=O)[O-])o2)C(=O)N1CCCCCn1cc(-c2cc(C(F)(F)F)cc(C(F)(F)F)c2)nn1 | > 10 µM | > 10 µM | > 10 µM | > 10 µM | > 10 µM | – | > 10 µM | 17.7 µM | –
6 | CCCCCCc1cn(CCCCCCN2C(=O)CN(/N=C/c3ccc([N+](=O)[O-])o3)C2=O)nn1 | 0.48 µM | 5.3 µM | > 10 µM | > 10 µM | > 10 µM | 16 | > 10 µM | 83.4 µM | 174
7 | CCCCCCc1cn(CCCCCN2C(=O)CN(/N=C/c3ccc([N+](=O)[O-])o3)C2=O)nn1 | 0.61 µM | 1.5 µM | > 10 µM | > 10 µM | > 10 µM | 44 | > 10 µM | 65.9 µM | 108
8 | O=C1CN(/N=C/c2ccc([N+](=O)[O-])o2)C(=O)N1CCCn1cc(-c2ccc(F)cc2)nn1 | > 10 µM | 0.74 µM | > 10 µM | > 10 µM | > 10 µM | > 135 | > 10 µM | > 100 µM | –
9 | O=C1CN(/N=C/c2ccc([N+](=O)[O-])o2)C(=O)N1CCCn1cc(-c2cc(C(F)(F)F)cc(C(F)(F)F)c2)nn1 | 1.2 µM | 0.67 µM | > 10 µM | > 10 µM | > 10 µM | 46 | > 10 µM | 30.6 µM | 26
10 | Cc1ccc(-c2cn(CCCCCN3C(=O)CN(/N=C/c4ccc([N+](=O)[O-])o4)C3=O)nn2)cc1 | > 10 µM | 1.86 µM | > 10 µM | > 10 µM | > 10 µM | 8 | > 10 µM | 13.9 µM | –
11 | CCCCCCCCc1cn(CCCCCN2C(=O)CN(/N=C/c3ccc([N+](=O)[O-])o3)C2=O)nn1 | > 10 µM | > 10 µM | > 10 µM | > 10 µM | > 10 µM | – | > 10 µM | 28.6 µM | –
12 | CCCCCc1ccc(-c2cn(CCCCCN3C(=O)CN(/N=C/c4ccc([N+](=O)[O-])o4)C3=O)nn2)cc1 | > 10 µM | > 10 µM | > 10 µM | > 10 µM | > 10 µM | – | > 10 µM | 9.73 µM | –
13 | O=C1CN(/N=C/c2ccc([N+](=O)[O-])o2)C(=O)N1CCCCCn1cc(-c2ccc(F)cc2)nn1 | > 10 µM | 0.98 µM | > 10 µM | > 10 µM | > 10 µM | 40 | > 10 µM | 37.2 µM | –
14 | O=C1CN(/N=C/c2ccc([N+](=O)[O-])o2)C(=O)N1CCCCCn1cc(CSc2ccccc2)nn1 | 0.01 µM | 1.7 µM | > 10 µM | > 10 µM | > 10 µM | 52 | > 10 µM | 87.9 µM | 8790
15 | O=C1CN(/N=C/c2ccc([N+](=O)[O-])o2)C(=O)N1CCCCCCn1cc(-c2cc(C(F)(F)F)cc(C(F)(F)F)c2)nn1 | 5.35 µM | 0.8 µM | > 10 µM | > 10 µM | > 10 µM | – | > 10 µM | – | –
16 | Cc1ccc(-c2cn(CCCCCCN3C(=O)CN(/N=C/c4ccc([N+](=O)[O-])o4)C3=O)nn2)cc1 | 0.98 µM | 0.66 µM | > 10 µM | > 10 µM | > 10 µM | 47 | > 10 µM | 31.1 µM | 32
17 | CCCCCc1cn(CCCCCCN2C(=O)CN(/N=C/c3ccc([N+](=O)[O-])o3)C2=O)nn1 | > 10 µM | 0.27 µM | > 10 µM | > 10 µM | > 10 µM | 57 | > 10 µM | 15.5 µM | –
18 | CCCCc1cn(CCCCCCN2C(=O)CN(/N=C/c3ccc([N+](=O)[O-])o3)C2=O)nn1 | > 10 µM | 1.19 µM | > 10 µM | > 10 µM | > 10 µM | 37 | > 10 µM | 44.5 µM | –
19 | CCCCCCCCc1cn(CCCCCCN2C(=O)CN(/N=C/c3ccc([N+](=O)[O-])o3)C2=O)nn1 | 0.11 µM | 2.62 µM | > 10 µM | > 10 µM | > 10 µM | 19 | > 10 µM | 50.3 µM | 457
20 | CCCCCCCCc1cn(CCCN2C(=O)CN(/N=C/c3ccc([N+](=O)[O-])o3)C2=O)nn1 | > 10 µM | 0.73 µM | > 10 µM | > 10 µM | > 10 µM | 16 | > 10 µM | 11.5 µM | –
21 | CCCCCc1ccc(-c2cn(CCCN3C(=O)CN(/N=C/c4ccc([N+](=O)[O-])o4)C3=O)nn2)cc1 | > 10 µM | > 10 µM | > 10 µM | > 10 µM | > 10 µM | – | > 10 µM | 79.8 µM | –
22 | C[C@@H]1[C@H](O)[C@@H](C)/C=C/C=C/C=C/C=C/C=C/C=C/C=C/[C@H](O[C@@H]2O[C@H](C)[C@@H](O)[C@H](N)[C@@H]2O)C[C@@H]2O[C@](O)(C[C@@H](O)C[C@@H](O)[C@H](O)CC[C@@H](O)C[C@@H](O)CC(=O)O[C@H]1C)C[C@H](O)[C@H]2C(=O)O [AMPHOTERICIN B] | – | – | – | – | 0.03 µM | – | – | – | –
23 | CC[C@H]1CN2CCc3cc(OC)c(OC)cc3[C@@H]2C[C@@H]1C[C@H]1NCCc2cc(OC)c(OC)cc21 [EMETINE] | – | – | – | – | – | – | – | 0.01 µM | –
